Entries after “also recorded” stand apart in the source; their conditions may differ.
Columns and labels:
5-HT2C receptors = conditions: in vivo; cited from earlier work
[1] = tested on: rhesus monkeys responding for 0.032 mg/kg/inf cocaine; assay: cocaine self-administration under a progressive ratio (PR) schedule; assay type: in vivo, rhesus monkey; conditions: for effect on PR responding for cocaine (reinforcing effectiveness of cocaine): 0.032 mg/kg/inf cocaine, 4 rhesus monkeys (2 male, 2 female), acute
[2] = e.g., valvulopathies; cited from earlier work
humans [3] = conditions: cited from earlier work
DA D3 receptor [4] = molecular target: T1, DA D3 receptor (Homo sapiens, UniProt P35462); conditions: in vivo; cited from earlier work
[5] = tested on: rhesus and cynomolgus monkeys; conditions: in vivo; cited from earlier work
DA D3 receptor [6] = molecular target: T1, DA D3 receptor; conditions: cited from earlier work
[7] = tested on: rhesus monkeys responding for 0.032 mg/kg/inf cocaine; conditions: cited from earlier work; for effectiveness on cocaine self-administration with daily dosing: administered daily for 10-14 days
[8] = tested on: rhesus monkeys, responding reinstated by cocaine; assay: cocaine-primed reinstatement of extinguished responding for cocaine; assay type: in vivo, rhesus monkey; conditions: 0.32 mg/kg cocaine prime; 4 rhesus monkeys
Method: Reinstatement of responding for cocaine.
Experimental design. Monkeys will respond for 0.032 mg/kg/inf cocaine under a FR30:TO180-sec schedule of reinforcement during daily 90-min sessions. During extinction, all stimulus lights will be extinguished with responding being recorded but having no scheduled consequence. During reinstatement tests, the drug-associated stimuli (i.e., the green and red stimulus lights) will be presented according to an FR30:TO180-sec schedule but no infusions will be delivered. Priming infusions of cocaine or saline will be injected directly into the vascular access port (followed by a 5-ml saline flush) 5 min before the start of the session.
The acute effects of lorcaserin (0.1-3.2 mg/kg; SC; 15 min PT) and buspirone (0.1-3.2 mg/kg; SC; 15 min PT) alone will be studied prior to evaluating mixtures. Because the nature of drug-drug interactions can vary depending upon the composition of the mixture, lorcaserin and buspirone will be evaluated over at least three fixed-dose pairs of at least three fixed-ratios (i.e., 3:1, 1:1, and 1:3), using the strategy described above. Mixtures will be based on the effects of lorcaserin and buspirone alone and customized to individual monkeys. […] Additional fixed-ratios mixtures (10:1 or 1:10) will be evaluated if significant, non-additive interactions are observed with either 3:1 or 1:3 ratios, respectively. […]

humans [9] = conditions: cited from earlier work; remark: listed apart in the source
recreational drug users = conditions: 20-60 mg; cited from earlier work
[10] = molecular target: T2, 5-HT2C over 5-HT2B receptors (Homo sapiens, UniProt P28335); conditions: cited from earlier work
T2 construct: expressed in transfected cells
T2 sequence (P28335 33-458): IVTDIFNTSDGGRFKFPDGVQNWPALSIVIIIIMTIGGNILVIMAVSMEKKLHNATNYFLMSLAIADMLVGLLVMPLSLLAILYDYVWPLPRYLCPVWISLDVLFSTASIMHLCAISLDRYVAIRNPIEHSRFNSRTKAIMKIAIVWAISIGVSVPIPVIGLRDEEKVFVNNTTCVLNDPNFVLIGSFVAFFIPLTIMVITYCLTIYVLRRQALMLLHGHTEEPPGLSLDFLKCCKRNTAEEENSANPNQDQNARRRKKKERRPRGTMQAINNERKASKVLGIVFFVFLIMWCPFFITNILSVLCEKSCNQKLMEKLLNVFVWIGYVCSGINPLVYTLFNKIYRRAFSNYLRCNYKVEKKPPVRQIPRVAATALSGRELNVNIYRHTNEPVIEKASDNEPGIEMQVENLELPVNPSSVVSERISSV

[11] = molecular target: T3, 5-HT2C over 5-HT2A receptors (Homo sapiens, UniProt P28335); conditions: cited from earlier work
T3 construct: expressed in transfected cells
T3 sequence (P28335 33-458): T2 sequence (P28335 33-458)

5-HT2A receptor = conditions: doses comparable to those required to reduce body weight in rats; cited from earlier work
obese adults = conditions: in vivo; cited from earlier work
[12] = functional assays, transfected cells

T1 sequence (P35462 whole entry): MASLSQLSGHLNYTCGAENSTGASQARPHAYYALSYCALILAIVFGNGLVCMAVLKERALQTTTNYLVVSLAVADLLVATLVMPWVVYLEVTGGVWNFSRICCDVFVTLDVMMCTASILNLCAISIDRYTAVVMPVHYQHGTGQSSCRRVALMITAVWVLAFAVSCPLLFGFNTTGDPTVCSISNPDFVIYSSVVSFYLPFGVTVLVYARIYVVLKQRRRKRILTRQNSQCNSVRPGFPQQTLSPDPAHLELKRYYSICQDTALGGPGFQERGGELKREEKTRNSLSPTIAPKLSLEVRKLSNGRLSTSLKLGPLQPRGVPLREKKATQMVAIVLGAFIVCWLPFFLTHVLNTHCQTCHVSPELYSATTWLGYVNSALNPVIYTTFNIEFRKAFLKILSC

In the case of `Clc1cccc(COc2cncc(N3CCNCC3)n2)c1` [CP-809,101], the “cocaine self-administration and/or reinstatement” value (5-HT2C receptors) is listed as “decrease cocaine self-administration and/or inhibit the reinstatement of a response previously reinforced by cocaine”.

For `Clc1cncc(N2CCNCC2)n1` [MK 212], the “cocaine self-administration and/or reinstatement” value (5-HT2C receptors) is given as “decrease cocaine self-administration and/or inhibit the reinstatement of a response previously reinforced by cocaine”.

For `C[C@H](N)Cn1ccc2cc(F)c(Cl)cc21` [Ro 60-0175], the “cocaine self-administration and/or reinstatement” value (5-HT2C receptors) is listed as “decrease cocaine self-administration and/or inhibit the reinstatement of a response previously reinforced by cocaine”.

For `c1cc2c3c(c1)[C@H]1CCC[C@H]1N3CCNC2` [WAY-163909], the “cocaine self-administration and/or reinstatement” value (5-HT2C receptors) is listed as “decrease cocaine self-administration and/or inhibit the reinstatement of a response previously reinforced by cocaine”.

In the case of `O=C1CC2(CCCC2)CC(=O)N1CCCCN1CCN(c2ncccn2)CC1` [buspirone], the “effect on PR responding for cocaine (reinforcing effectiveness of cocaine)” value [1] is given as “inhibited responding in a dose-dependent manner; also recorded: dose-dependently decreases the reinforcing effectiveness of cocaine”, the “potency in males relative to females at decreasing cocaine self-administration” value ([1]; PR schedule, 2 male and 2 female monkeys, more potent in males) is given as about 10 fold and the cardiovascular complications [2] is given as “devoid of serious cardiovascular complications”. The “reinforcing effects of cocaine in a human laboratory study” value (humans [3]; 30 mg) was “failed to alter the reinforcing effects of cocaine”, the “dose needed for clinically relevant DA D3 receptor occupancy relative to 60 mg maximal approved dose” value (DA D3 receptor [4]) was “at least 3 fold” and the “cocaine self-administration in monkeys (literature)” value [5] was “reliably decreased cocaine self-administration”. The “selective binding profile at DA D3 receptors” value (DA D3 receptor [6]) was 5-70 fold, the “relative potency at 5-HT1A, DA D3, and DA D4 receptors” value (DA D3 receptor [6]; recent studies) was “roughly equipotent” and the “effectiveness on cocaine self-administration with daily dosing” value [7] was “retain their effectiveness to reduce cocaine self-administration”. For the same compound, the “effectiveness of cocaine to reinstate extinguished responding for cocaine” value [8] was “dose-dependently decreases”, the “sex-related difference in promoting abstinence” value (humans [9]; 60 mg dose) was “more effective at promoting abstinence in males than in females” and the “abstinence from cocaine use, multi-site randomized double-blind placebo-controlled pilot study” value (humans [9]; 60 mg) was “failed to prolong abstinence from cocaine use”.

In the case of `CN1CCc2cc(Cl)c(O)cc2[C@H]2c3ccccc3CC[C@@H]21` [ecopipam], the “subjective or reinforcing effects of cocaine in humans” value (humans [3]; doses that did not produce sedation) is listed as “failed to alter the subjective or reinforcing effects of cocaine”.

In the case of `C[C@@H](Cc1ccccc1)NC(=O)[C@@H](N)CCCCN` [lisdexamfetamine], the “cocaine self-administration in monkeys (literature)” value [5] is given as “consistently reduce cocaine self-administration” and the “cocaine abstinence in a clinical setting” value (humans [9]; doses approved to treat ADHD) is given as “often ineffective at improving cocaine abstinence”.

In the case of `C[C@H]1CNCCc2ccc(Cl)cc21` [lorcaserin], the “effect on PR responding for cocaine (reinforcing effectiveness of cocaine)” value [1] is given as “inhibited responding in a dose-dependent manner; also recorded: dose-dependently decreases the reinforcing effectiveness of cocaine”, the “sensitivity of females relative to males” value ([1]; PR schedule, 2 male and 2 female monkeys, females more sensitive) is given as about 3 fold and the “subjective effects of supra-therapeutic doses” value (recreational drug users) is given as “subjective ratings of “high”, “good drug effects” and “hallucination””. For the same compound, the cardiovascular complications [2] was “devoid of serious cardiovascular complications”, the “selectivity for 5-HT2C over 5-HT2B receptors” value [10, 12] was about 100 fold and the “selectivity for (5-HT)2C versus 5-HT2B receptor” value ([10]; in vitro testing) was 100 ×. The “cocaine self-administration under fixed ratio and PR schedules (earlier report of the inventors)” value ([7]; acute administration) was “dose-dependently inhibits cocaine self-administration”, the “effectiveness on cocaine self-administration with daily dosing” value [7] was “retain their effectiveness to reduce cocaine self-administration” and the “persistence of anti-cocaine effects” value ([7]; repeated (daily) treatment) was “at least 14 days”. The “effectiveness of cocaine to reinstate extinguished responding for cocaine” value [8] was “dose-dependently decreases”, the “selectivity for 5-HT2C over 5-HT2A receptors” value [11, 12] was about 20 fold and the “selectivity over the 5-HT2A receptor” value ([11]; in vitro testing) was 17 ×. For the same compound, the head-twitches (5-HT2A receptor) was “produces 5-HT2A receptor-mediated head-twitches” and the weight loss (obese adults) was “modest, but sustained weight loss”.

For `Clc1cccc(N2CCNCC2)c1` [mCPP, meta-chlorophenylpiperazine], the “cocaine self-administration and/or reinstatement” value (5-HT2C receptors) is given as “decrease cocaine self-administration and/or inhibit the reinstatement of a response previously reinforced by cocaine”.
